According to US6437138B1, “3-pyridyloxymethyl heterocyclic ether compounds useful in controlling chemical synaptic transmission” (priority 1996, dated 2002):
pEC50, pKi: −log10 of the molar value. Counter-ions that a name gives are not always drawn.

Assays:
[1] = biological target: neuronal nicotinic cholinergic channels in IMR-32 cells (Homo sapiens, UniProt P30926+P32297); assay: 86Rb+ efflux in IMR-32 cells (activation, or inhibition of efflux elicited by (S)-nicotine); assay type: cell-based; conditions: for inhibition at 1 µM / inhibition at 10 µM: inhibition of the efflux elicited by 100 μM (S)-nicotine; for inhibition at 1 µM: single dose 1 μM; for inhibition at 10 µM: single dose 10 μM
Summary of the method: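 IMR-32 human neuroblastoma cells loaded overnight at 37° C with 86Rb+ (2 μCi/ml) in serum-free DMEM. Agonism given as EC50 and maximal response relative to 100 μM (S)-nicotine. Antagonism as inhibition of 100 μM (S)-nicotine-evoked efflux, either % at 1 or 10 μM or IC50.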

[2] = biological target: neuronal nicotinic cholinergic channel receptors (Rattus norvegicus, UniProt P09483+P12390); conditions: displacement of [3H]-cytisine (1.25 nM), whole rat brain membranes; Ki from IC50 by Cheng and Prusoff correction; read-out: Binding Ki
Sequence of neuronal nicotinic cholinergic channel receptors (P09483 31-630): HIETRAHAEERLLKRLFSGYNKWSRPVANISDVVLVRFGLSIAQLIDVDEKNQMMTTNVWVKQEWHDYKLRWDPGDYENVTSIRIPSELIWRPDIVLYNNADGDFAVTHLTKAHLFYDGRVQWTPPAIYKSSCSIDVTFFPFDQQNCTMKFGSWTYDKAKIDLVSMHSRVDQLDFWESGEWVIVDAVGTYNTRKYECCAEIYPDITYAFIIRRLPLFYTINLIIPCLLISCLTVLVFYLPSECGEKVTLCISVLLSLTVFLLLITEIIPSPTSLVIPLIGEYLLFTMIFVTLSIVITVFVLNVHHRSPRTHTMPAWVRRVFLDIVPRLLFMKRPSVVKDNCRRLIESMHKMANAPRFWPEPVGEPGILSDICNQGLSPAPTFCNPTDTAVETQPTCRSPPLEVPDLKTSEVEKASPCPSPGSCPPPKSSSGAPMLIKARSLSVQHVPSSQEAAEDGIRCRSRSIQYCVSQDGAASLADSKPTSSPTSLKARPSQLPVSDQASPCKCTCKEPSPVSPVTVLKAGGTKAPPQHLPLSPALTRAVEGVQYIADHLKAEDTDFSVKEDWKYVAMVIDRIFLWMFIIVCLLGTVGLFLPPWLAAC
Sequence of neuronal nicotinic cholinergic channel receptors (P12390 25-500): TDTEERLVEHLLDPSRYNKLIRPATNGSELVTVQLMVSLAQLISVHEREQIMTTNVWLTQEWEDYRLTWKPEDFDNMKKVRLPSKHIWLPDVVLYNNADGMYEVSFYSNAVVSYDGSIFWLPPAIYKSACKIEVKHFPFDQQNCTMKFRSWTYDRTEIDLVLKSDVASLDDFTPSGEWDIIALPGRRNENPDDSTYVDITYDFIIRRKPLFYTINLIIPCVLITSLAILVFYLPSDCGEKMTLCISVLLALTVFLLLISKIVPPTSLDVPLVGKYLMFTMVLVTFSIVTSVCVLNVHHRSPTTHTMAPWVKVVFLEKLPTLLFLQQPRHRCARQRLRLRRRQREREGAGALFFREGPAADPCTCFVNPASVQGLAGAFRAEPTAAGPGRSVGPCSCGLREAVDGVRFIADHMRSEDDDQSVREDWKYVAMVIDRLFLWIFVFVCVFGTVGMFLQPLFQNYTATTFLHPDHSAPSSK
Description: A. Protocol For Determination of Nicotinic Cholinergic Channel Receptor Binding Potencies of Ligands
Binding of [^3H]-cytisine ([^3H]-CYT) to nicotinic receptors was accomplished using crude synaptic membrane preparations from whole rat brain (Pabreza et al., Molecular Pharmacol, 1990, 39:9). Washed membranes were stored at −80° C. prior to use. Frozen aliquots were slowly thawed and resuspended in 20 volumes of buffer (containing: 120 mM NaCl, 5 mM KCl, 2 mM MgCl2, 2 mM CaCl2 and 50 mM Tris-Cl, pH 7.4 @ 4° C.). After centrifuging at 20,000×g for 15 minutes, the pellets were resuspended in 30 volumes of buffer. Homogenate (containing 125-150 μg protein) was added to triplicate tubes containing concentrations of test compound and [^3H]-CYT (1.25 nM) in a final volume of 500 μL. Samples were incubated for 60 minutes at 4° C., then rapidly filtered through Whatman GF/B filters presoaked in 0.5% polyethyleneimine using 3×4 mL of ice-cold buffer. The filters are counted in 4 mL of Ecolume® (ICN). Nonspecific binding was determined in the presence of […] (−)-nicotine and values were expressed as a percentage of total binding.

Cl.Cl.Clc1ncc(OC[C@@H]2CCCN2)cc1-c1cccnc1 [Example 34, 5-(3-Pyridinyl)-6-chloro-3-(2-(S)-pyrrolidinylmethoxy)pyridine Dihydrochloride]
Emax ([1]; IMR-32, 86Rb+ efflux, percent relative to the response elicited by 100 μM (S)-nicotine, read-out: IMR-32 maximal response): 88% | melting point: 195 to 198 °C | pKi [2]: 10.68

CN1CCC[C@H]1COc1cncc(-c2cc3ccccc3n2C)c1.Cl [Example 36, 5-(1-Methyl-2-indolyl)-3-(1-methyl-2-(S)-pyrrolidinylmethoxy)pyridine Hydrochloride]
inhibition at 1 µM ([1]; IMR-32): 28% | melting point: 195 to 197 °C | pKi [2]: 9.49

CN1CCC[C@H]1COc1cncc(-c2ccc(Cl)cc2)c1.Cl.Cl [Example 38, 5-(4-Chlorophenyl)-3-(1-methyl-2-(S)-pyrrolidinylmethoxy)pyridine Dihydrochloride]
inhibition at 1 µM ([1]; IMR-32): 29% | inhibition at 10 µM ([1]; IMR-32): 100% | melting point: 224 to 226 °C | pKi [2]: 10.09

CN1CCC[C@H]1COc1cncc(-c2ccc(Cl)cc2Cl)c1.Cl.Cl [Example 39, 5-(2,4-Dichlorophenyl)-3-(1-methyl-2-(S)-pyrrolidinylmethoxy)pyridine Dihydrochloride]
inhibition at 1 µM ([1]; IMR-32): 52% | melting point: 176 to 178 °C | pKi [2]: 9.80

CN1CCC[C@H]1COc1cncc(C#Cc2ccccc2)c1.Cl.Cl [Example 40, 5-(2-Phenylethynyl)-3-(1-methyl-2-(S)-pyrrolidinylmethoxy)pyridine Dihydrochloride]
inhibition at 1 µM ([1]; IMR-32): 30% | inhibition at 10 µM ([1]; IMR-32): 100% | melting point: 190 to 192 °C | pKi [2]: 9.80

Cc1ccc(-c2cncc(OC[C@@H]3CCCN3C)c2)cc1.Cl.Cl [Example 41, 5-(4-Methylphenyl)-3-(1-methyl-2-(S)-pyrrolidinylmethoxy)pyridine Dihydrochloride]
inhibition at 1 µM ([1]; IMR-32): 41% | inhibition at 10 µM ([1]; IMR-32): 100% | melting point: 204 to 206 °C | pKi [2]: 9.89

CN1CCC[C@H]1COc1cncc(-c2cccc(N)c2)c1.Cl.Cl [Example 43, 5-(3-Aminophenyl)-3-(1-methyl-2-(S)-pyrrolidinylmethoxy)pyridine Dihydrochloride]
inhibition at 1 µM ([1]; IMR-32): 36% | melting point: 80 to 82 °C | pKi [2]: 9.37

Cc1ccccc1-c1cncc(OC[C@@H]2CCCN2C)c1 [Example 45, 5-(2-Methylphenyl)-3-(1-methyl-2-(S)-pyrrolidinylmethoxy)pyridine Dihydrochloride]
inhibition at 1 µM ([1]; IMR-32): 41% | inhibition at 10 µM ([1]; IMR-32): 100% | pKi [2]: 8.96

CN1CCC[C@H]1COc1cncc(-c2ccc(C(F)(F)F)cc2)c1 [Example 46, 5-(4-(Trifluoromethyl)phenyl)-3-(1)-methyl-2-(S)-pyrrolidinylmethoxy)pyridine Dihydrochloride]
inhibition at 1 µM ([1]; IMR-32): 37% | pKi [2]: 9.82

CCCCC#Cc1cncc(OC[C@@H]2CCN2)c1.Cl.Cl [Example 58, 5-Hexynyl-3-(2-(S)-azetidinylmethoxy)pyridine Dihydrochloride]
pEC50 ([1]; 86Rb+ efflux, activation): 6.10 | IMR-32 maximal response ([1]; 86Rb+ efflux, percent relative to the response elicited by 100 μM (S)-nicotine): 47% | pKi [2]: 10.25
